Source: the supplement of paper PMC11451515

Tested on: SEM cells
Assay: cell viability relative to DMSO control; higher = less cytotoxic
Conditions: 48 h
Procedure, shortened: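 Library compounds in DMSO were pin-dosed in an 11-point threefold series (47 μM to 0.79 nM) onto leukemia cells in 1536-well plates (5 μl). Plates held 500 cells/well of NOMO1 or SEM or 1000 cells/well of P12-Ichikawa, each adapted for at least four passages in each medium. Luminescence was read with CellTiter-Glo One after 48 h at 37°C. Viability means the per-plate percentage relative to DMSO wells, using cell-free wells as background.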

[1] = HPLM + 10% dialyzed FBS, 0.000781 µM
[2] = HPLM + 10% dialyzed FBS, 0.00234 µM
[3] = HPLM + 10% dialyzed FBS, 0.00702 µM
[4] = HPLM + 10% dialyzed FBS, 0.0211 µM
[5] = HPLM + 10% dialyzed FBS, 0.0632 µM
[6] = HPLM + 10% dialyzed FBS, 0.19 µM
[7] = HPLM + 10% dialyzed FBS, 0.569 µM
[8] = HPLM + 10% dialyzed FBS, 1.71 µM
[9] = HPLM + 10% dialyzed FBS, 5.12 µM
[10] = HPLM + 10% dialyzed FBS, 15.4 µM
[11] = HPLM + 10% dialyzed FBS, 46.1 µM
[12] = RPMI 5 mM glucose + 10% FBS, 0.000781 µM
[13] = RPMI 5 mM glucose + 10% FBS, 0.00234 µM
[14] = RPMI 5 mM glucose + 10% FBS, 0.00702 µM
[15] = RPMI 5 mM glucose + 10% FBS, 0.0211 µM
[16] = RPMI 5 mM glucose + 10% FBS, 0.0632 µM
[17] = RPMI 5 mM glucose + 10% FBS, 0.19 µM
[18] = RPMI 5 mM glucose + 10% FBS, 0.569 µM
[19] = RPMI 5 mM glucose + 10% FBS, 1.71 µM
[20] = RPMI 5 mM glucose + 10% FBS, 5.12 µM
[21] = RPMI 5 mM glucose + 10% FBS, 15.4 µM
[22] = RPMI 5 mM glucose + 10% FBS, 46.1 µM
[23] = RPMI 5 mM glucose + 10% dialyzed FBS, 0.000781 µM
[24] = RPMI 5 mM glucose + 10% dialyzed FBS, 0.00234 µM
[25] = RPMI 5 mM glucose + 10% dialyzed FBS, 0.00702 µM
[26] = RPMI 5 mM glucose + 10% dialyzed FBS, 0.0211 µM
[27] = RPMI 5 mM glucose + 10% dialyzed FBS, 0.0632 µM
[28] = RPMI 5 mM glucose + 10% dialyzed FBS, 0.19 µM
[29] = RPMI 5 mM glucose + 10% dialyzed FBS, 0.569 µM
[30] = RPMI 5 mM glucose + 10% dialyzed FBS, 1.71 µM
[31] = RPMI 5 mM glucose + 10% dialyzed FBS, 5.12 µM
[32] = RPMI 5 mM glucose + 10% dialyzed FBS, 15.4 µM
[33] = RPMI 5 mM glucose + 10% dialyzed FBS, 46.1 µM

Row | Compound | cell viability [1] | cell viability [2] | cell viability [3] | cell viability [4] | cell viability [5] | cell viability [6] | cell viability [7] | cell viability [8] | cell viability [9] | cell viability [10] | cell viability [11] | cell viability [12] | cell viability [13] | cell viability [14] | cell viability [15] | cell viability [16] | cell viability [17] | cell viability [18] | cell viability [19] | cell viability [20] | cell viability [21] | cell viability [22] | cell viability [23] | cell viability [24] | cell viability [25] | cell viability [26] | cell viability [27] | cell viability [28] | cell viability [29] | cell viability [30] | cell viability [31] | cell viability [32] | cell viability [33]
1 | COc1ccc2cc(-c3[nH]c(-c4ccc([S+](C)[O-])cc4)nc3-c3ccncc3)ccc2c1 (stereo unspecified) | 92.4% | 104% | 105% | 109% | 109% | 114% | 121% | 107% | 126% | 127% | 107% | 76.8% | 105% | 96.3% | 85.9% | 95% | 101% | 101% | 106% | 110% | 111% | 71.9% | 88.6% | 109% | 102% | 105% | 101% | 116% | 127% | 109% | 111% | 116% | 88.9%
2 | Cn1cc(-c2ccncc2)c(-c2ccc(OCc3ccc4ccccc4n3)cc2)n1 | 124% | 127% | 95% | 134% | 132% | 123% | 116% | 124% | 125% | 110% | 110% | 123% | 126% | 102% | 118% | 118% | 125% | 122% | 124% | 95.3% | 81.1% | 82.4% | 94.6% | 108% | 89.7% | 112% | 98% | 102% | 112% | 110% | 103% | 96.8% | 64.3%
3 | CC1(C)O[C@H]2CC(=O)OC[C@]23[C@H]2CC[C@@]4(C)[C@H](c5ccoc5)OC(=O)[C@H]5O[C@]54[C@]2(C)C(=O)C[C@@H]13 | 84.1% | 86.8% | 95.3% | 96.2% | 108% | 106% | 104% | 105% | 96.7% | 89.4% | 98.7% | 83.8% | 98.8% | 98.4% | 88.8% | 99.2% | 86% | 105% | 88.2% | 96.5% | 85.2% | 93.2% | 74.6% | 102% | 97.5% | 83.1% | 99% | 90% | 109% | 76.6% | 84.8% | 102% | 90%
4 | C=C1C[C@@]2(O)O[C@@]3(C[C@H]2C(C)C)[C@@H](C)CC[C@@H]13 | 90.3% | 85.5% | 68.4% | 109% | 105% | 108% | 23.6% | 41% | 100% | 108% | 95.1% | 117% | 109% | 78.5% | 125% | 113% | 122% | 21.8% | 41.5% | 116% | 108% | 111% | 81.8% | 110% | 77.2% | 97.3% | 96% | 104% | 21.5% | 29.9% | 105% | 111% | 93.2%
5 | CC1=C2N=C([NH]C2=CC(=C1)N3CCOCC3)\C4=C(NC[C@@H](O)C5=CC=CC(=C5)Cl)\C=C/NC4=O | 77.8% | 95.7% | 91.4% | 91.2% | 82.8% | 75.8% | 61.3% | 52.5% | 26.9% | 19.4% | 15.4% | 81.3% | 105% | 122% | 115% | 94.1% | 95.6% | 83.7% | 56.2% | 26.6% | 14.2% | 8.45% | 70.7% | 90.3% | 84.6% | 80.1% | 67.9% | 75.1% | 66.8% | 46.7% | 21.1% | 13.7% | 7.96%
6 | NC12CC3CC(CC(C3)C1)C2 | 45.1% | 106% | 70.8% | 106% | 125% | 114% | 113% | 124% | 98.1% | 123% | 119% | 42.3% | 102% | 70.6% | 104% | 109% | 109% | 102% | 107% | 89% | 110% | 104% | 33.7% | 96.5% | 71.4% | 108% | 114% | 115% | 112% | 122% | 110% | 131% | 107%
7 | c1cc(-c2sc(-c3ccncc3)c(-c3ccncc3)c2-c2ccncc2)ccn1 | 90.9% | 107% | 108% | 110% | 106% | 116% | 107% | 82.4% | 43.3% | 20.7% | 14.9% | 89.6% | 87.8% | 93.9% | 89.3% | 106% | 97.9% | 101% | 63.5% | 29.6% | 17.9% | 13.2% | 102% | 101% | 118% | 113% | 106% | 110% | 103% | 67.3% | 41% | 22.4% | 15.1%
